Our source for the melting point values is a melting point compilation (Tetko et al.; mined from patent text by program, amines drawn as free bases though some values may be those of a salt).

A value given as a limit tells only on which side of the number the result lay.

In the case of `CSc1ccc(NC(=O)C(C#N)C(=O)c2cccn2C)cc1` (stereo not given), the melting point was in the range of 167 to 168 °C.
As for `COc1cc(-c2nc3ccc(OCCN4CCCCC4)cc3n2Cc2ccccc2Br)cc(OC)c1OC`, the melting point worked out at 145 °C.
In turn, `COC(=O)c1cccc2nc(OCC(F)(F)F)n(Cc3ccc(-c4ccccc4-c4nnn[nH]4)cc3)c12` gave a melting point of 210 to 212 °C.
In turn, `CSc1ccc(C(C#N)=NO)cc1SC` displayed a melting point of 131 to 133 °C.
For `CNc1cc(-c2ccc(Cl)cc2)nc2nn(C)cc12`, the melting point was 182 to 184 °C.
The compound `Cc1cccc(C)c1N(CC(C)N)S(C)(=O)=O` (stereo not given) gave a melting point of 106 to 109 °C.
For the compound `COc1ccc(Cl)cc1NC(=O)[C@H]1[C@H](c2ccc(Br)cc2)C1(C)C` (relative stereo), the melting point fell in the range of 170 to 172 °C.
In the case of `Cc1cc2ncc(Cl)nc2cc1C`, the melting point was 103 °C.
The value for `Cc1ccc(C(=O)NC(NC(=S)Nc2c(F)cccc2F)C(F)(F)F)cc1` (stereo not given) was 185 to 186 °C; that for `CC(=Cc1cnc2nc(N)nc(N)c2c1)c1ccc(C(=O)OC(C)(C)C)cc1` was more than 300 °C; that for `O=Cc1cc2cc(OCc3ccccc3)c(F)cc2nc1Cl` was 228 °C.
Compound `CCOC(=O)CNc1ccc2oc3c(OC)ccc(C(=O)Nc4c(Cl)cncc4Cl)c3c2c1` gave a melting point of more than 270 °C.
On to `CCC1N=C(c2ccccc2Cl)c2cc(CCC(=O)OC)sc2NC1=S` (stereo not given), for which the melting point was in the range of 173 to 176 °C.
`CSc1c(O[C@@H]2CCC[C@H](N)C2)ccc2[nH]ncc12` (relative stereo): the melting point fell in the range of 112 to 113 °C.
In turn, `COc1cc(C)c(N)cc1C` came in with a melting point of 75 to 76 °C.
For `COc1cccc(OC)c1C(=O)Nc1ccc(OCCN2CCCCC2)cc1`, the melting point was in the range of 114 to 118 °C.
The value for `CC(C)c1nc2ccccn2c(=O)c1-c1ccc(Cl)cc1` was 98 to 100 °C.
To `CSc1nc(O)nn1-c1ccccc1` belongs 176 to 177 °C; to `COC(=O)CCC(=O)c1ccc2c(c1)CNC(=O)N2C`, 165 to 175 °C.
In the case of `O=C1c2ccccc2C(O)N1CCSc1ccncc1` (stereo not given), the melting point is 112 °C.
Turning to `CC(=O)OC(OC(C)=O)c1ccc(C#N)cc1`, the melting point was 104 to 107 °C.
Take `CSc1nnc(SC)c2cc(-c3ccccc3)ncc12`: the melting point was determined as 155 °C.
Turning to `CCOCn1c(Oc2ccccc2)c(C(C)C)c(=O)[nH]c1=O`, the melting point is 137 to 138 °C.
The value for `Cc1nnc(-c2ccc3occ(-c4ccc(SCc5ccccc5C#N)cc4)c3c2)o1` was 141 to 142 °C; that for `CC(C#CC1=C(C)C(=O)C(O)CC1(C)C)=CCO` (stereo not given) was 84 to 86 °C.
On to `CNC(=O)Cc1c(F)cccc1F`, for which the melting point is 163 to 164 °C.
`COc1ccc(-c2oc(C(F)(F)F)nc2-c2ccc(S(N)(=O)=O)cc2)cc1F` showed a melting point of 150 to 151 °C.
Compound `Cn1c(C(F)(F)F)cc(=O)n(-c2cc(OC3COC(=O)O3)c(Cl)cc2F)c1=O` (stereo not given) came in with a melting point of 165 to 167 °C.
`O=C(NCCCc1ccc(CC(CCCc2ccccc2)(C(=O)OCc2ccccc2)C(=O)OCc2ccccc2)cc1)c1ccc(-c2ccccn2)cc1` had a melting point of 118 to 120 °C.
The value for `CC(=O)n1cc(C2C(=O)CC(C)(C)CC2=O)c2ccccc21` was 225 to 227 °C; that for `CS(=O)(=O)N1C(=O)C2(COc3cc4c(cc32)OCO4)c2ccccc21` (stereo not given) was 215 to 217 °C.
To `OCc1nnc2ccc(-c3cccc(C(F)(F)F)c3)nn12` belongs 224 to 226 °C; to `Nc1ccc(-c2scc3c2OCCO3)cc1`, 98.5 to 99 °C; to `Cn1nc(-c2nc(OCC(N)=O)c(Cl)cc2F)c(Cl)c1OC(F)F`, 178 to 180 °C.
`COc1cc(OCc2ccccc2)ccc1/C=C/c1cc(/C=C/c2ccc3cc[nH]c3c2)[nH]n1` returned a melting point of 86 to 91 °C.
The value for `CCCOc1ccccc1-c1nc2ncccc2c(=O)[nH]1` was 110 to 111 °C; that for `CCOC(=O)Cn1nnc2cc(-c3ncc(C(F)(F)F)cc3Cl)ccc21` was 127 to 129 °C.
`O=C(O)C1=Cc2cc(Cl)ccc2N(Cc2ccc([N+](=O)[O-])cc2)C1C(F)(F)F` (stereo not given): the melting point was 225 to 228 °C.
In turn, `CCCCCCCCCCCCCCC(=O)CC(=O)OC` showed a melting point of 51 to 53 °C.
Compound `CCn1ncc(OCc2ccc(OCOC)cc2)c(Br)c1=O` returned a melting point of 104 to 106 °C.
Compound `COc1ccc(-c2cc(C(C)(C)C)sc2-c2ccc(OC)cc2)cc1` yielded a melting point of 112 to 115 °C.
To `CS(=O)(=O)Nc1cccc(C=C2c3ccccc3CCc3ccccc32)c1` belongs 66.3 °C; to `O=C(Nc1ccccc1I)c1ccccc1`, 147 to 148 °C; to `CCCCc1c(/C=C/C(=O)OC)ccc2cc(OC)ccc12`, 71 to 72 °C.
In the case of `CN1CCCC1=NC(=O)Nc1cc(Cl)cc(Cl)c1`, the melting point was 157 to 159 °C.
`CCOC(=O)C1=C(N)NC2=C(C(=O)CCC2)C1c1cc(OC)c(OC)cc1[N+](=O)[O-]` (stereo not given) yielded a melting point of 261 °C.
`COC(=O)C(O)(c1ccc(C)cc1)c1ccc(C)cc1` yielded a melting point of 83 to 84 °C.
On to `OC1CCCc2cc(F)cc(F)c21` (stereo not given), for which the melting point lay within 102 to 103 °C.
As to `CCOC(=O)C(O)CCn1cnc2c(Cl)nc(N)nc21` (stereo not given), the melting point was in the range of 163 to 164 °C.
On to `CN(C1CCN(Cc2ccccn2)CC1)S(=O)(=O)c1ccc(Nc2nccc(Nc3ccc(F)cc3)n2)cc1`, for which the melting point was 202 to 204 °C.
Compound `COc1ccc(OC)c(S(=O)(=O)Nc2onc(C)c2Br)c1` gave a melting point of 118 to 120 °C.
With `COc1ccc2c(c1OC)CC[C@H]1[C@H]2CCCN1CCc1ccccc1` (relative stereo), the melting point was in the range of 110 to 111 °C.
Turning to `CN(C)C1CC2(C)C(=O)CCC2C2CCC3CC(O)CCC3(C)C21` (stereo not given), the melting point is 135 to 136 °C.
In turn, `COc1ccc(C=CC(=O)c2cccc(OCCCCBr)c2)cc1` came in with a melting point of 91 to 92 °C.
The value for `O=C1c2ccccc2C(=O)N1OCCCN1CCN(c2ccc3ccccc3n2)CC1` was 158 to 160 °C; that for `BrCC1(CBr)COC(c2ccccc2)OC1` was 66 °C.
Consider `CC(C)OC(=O)C(C)Oc1ncn(-c2ccc(Cl)cc2Cl)n1` (stereo not given), for which the melting point lay in the range of 55 to 57 °C.
In the case of `COC1(c2cc(F)cc(Sc3ccc4c(c3)SCC(=O)N4C)c2)CCOCC1`, the melting point lay within 131 to 133 °C.
For the compound `Nc1cc(C(=O)O)cc(N)c1O`, the melting point worked out at 205 °C.
In turn, `O=C1CCC(c2ccc3c(c2)CCC2(CCN(C4CCC4)CC2)O3)=NN1` registered a melting point of 242 to 244 °C.
The value for `CCOC(=O)c1cn(-c2ccc(F)cc2)c2cc(C#C[Si](C)(C)C)ccc2c1=O` was 247 to 249 °C.
Compound `Cc1c(Cl)ccc2[nH]c(CO)cc12` showed a melting point of 108 °C.
`CCCOc1ccc(CN/C=C2\C(=O)NC(=O)c3ccc(-c4ccc(F)cc4)cc32)cc1O` registered a melting point of 194 to 195 °C.
Compound `COC(=O)c1ccc2c(c1)C(SCCI)c1ccccc1CO2` (stereo not given) returned a melting point of 111 to 113 °C.
`CN1CC[C@@H](c2c(O)cc(O)c3c(=O)cc(-c4ccc([N+](=O)[O-])cc4)oc23)[C@@H]1CO` registered a melting point of 275 to 277 °C.
